Laboratory results published in patent US11931328B2, “Stabilized formulations of 4-amino-3-substituted butanoic acid derivatives” (AMNEAL PHARMACEUTICALS LLC, priority 2019, dated 2024).
Entries after “also recorded” stand apart in the source; their conditions may differ. Read-outs that look alike come from different tables or passages of the source.

Assay: Accelerated stability studies of API/stabilizer preparations (lactam impurity A by HPLC)
Assay type: physicochemical

## NCC(CC(=O)O)c1ccc(Cl)cc1 (stereo not drawn) [baclofen, 4-amino-3-(4-chlorophenyl)butanoic acid]
With EUDRAGIT E PO 1, 5, 10% (m/m), stored at 60° C. in closed glass vials, HPLC
  effect of EUDRAGIT E on formation of lactam impurity A: stabilized; also recorded: stabilization effect

## NCC1(CC(=O)O)CCCCC1 [gabapentin]
  effect of EUDRAGIT E on formation of lactam impurity A: destabilization effect

## CC(C)C[C@H](CN)CC(=O)O [pregabalin]
  effect of EUDRAGIT E on formation of lactam impurity A: destabilization effect
